We go through 1 compound from patent US4620014A, “2-furylbutyrolactones and methods for using same” (priority 1983, dated 1986).

One assay relates to L-1210 leukemia. The experiment in a line: Anti-cancer study, L-1210 leukemia in BDF1 mice. In kind it is in vivo, mouse. The conditions noted are these: seven days. From the text:
Mice of the BDF1 strain are given an i.p. inoculation of 10^6 L-1210 leukemia cells on day 0. Twenty-four hours later, groups of 7 mice each are started on a […] treatment regimen of various doses of the compounds of this invention. The experiment is continued according to the guidelines provided under the National Cancer Institute protocol for screening new anti-cancer agents and T/C ratios (median or mean survival time of treated groups over median or mean survival time of controls) are calculated. A T/C value ≥1.25 (or 125%) is considered significant anticancer activity.
Mice of the BDF1 strain, inoculated with L-1210 leukemia cells, are treated for seven days with either 25, 50, 100, 200 or 400 mg/kg of Cpd. 1 or just buffer. The National Cancer Institute protocol for screening new anti-cancer agents is followed and T/C ratios are calculated.
Mice of the BDF1 strain, inoculated with L-1210 leukemia cells, are treated for seven days with either 100 mg/kg of Cpd. 1, 20 mg/kg of 5-fluorouracil (5-FU), a known anti-cancer agent, or just buffer. The National Cancer Institute protocol for screening new anti-cancer agents is followed and T/C ratios are calculated.

The test system of assay [1] is spleen lymphocytes of BALB/C mice. The conditions noted are these: 4 days. As for the experimental part:
The purpose of this assay is to challenge lymphocytes in microcultures with one or more polyclonal mitogens at concentrations that will induce mitogenesis within 72 hours of stimulation.
In the mouse model, spleens are removed from different strains of mice and the spleen cells are teased free and suspended in RPMI-1640 tissue culture medium at a concentration of usually 1×10^7 ml. These cells are dispensed at a concentration of 5.0×10^5 cells per microculture well in a 96 well flat bottom 96 well tissue culture plate. All testing of the compounds of this invention or mitogens are done in replicates of 10. The cells are then treated with PHA, Con-A, specific antigens, or buffer only. If in vitro testing is done, varying concentrations of the compounds of this invention or buffer only are added to the cells as well. After treatment with the mitogens and/or compounds of this invention, the cells are incubated for 72 hours. The response of these cells to mitogens and/or the compounds of this invention is assessed using ^14 C-thymidine labeling on the fourth day at a concentration of 0.01 μCi/well. The labeled cells are harvested using a lymphocyte harvestor and placed onto fibrous paper discs. […] The data is expressed as a ratio of the cpm of the mitogen stimulated group to the control (non-mitogen) treated group=lymphocyte stimulation index (LSI). […]

`Cc1ccc(C2(O)C(=O)OC3C(O)COC32O)o1.Cc1ccc(C2(O)C(=O)OC3C(O)COC32O)o1.O=C1CCC(=O)O1` (stereo not shown) [Cpd. 1]: the “Median Survival Time” value in the assay on L-1210 leukemia (25 mg/kg) was 20 days; in the assay with L-1210 leukemia (50 mg/kg), 21 days; in the assay with L-1210 leukemia (100 mg/kg) it was 30 days; in the assay with L-1210 leukemia (200 mg/kg), 30 days; in the assay on L-1210 leukemia (400 mg/kg) it was 25 days. Also, in assay [1] (400 mg/kg, compared to 200 mg/kg), the “DNA synthesis of spleen cell lymphocytes” value was “suppress DNA synthesis”. The “lymphocyte DNA synthesis, PHA and Con-A” value in assay [1] (50, 100 and 200 mg/kg i.p.) is recorded as “tend to stimulate lymphocyte DNA synthesis”.
